Measured values published in publication PMC9127750, “Structure-based design of CDC42 effector interaction inhibitors for the treatment of cancer” (Cell reports, 2022).
Values joined by “and” are separate entries in the source; they are usually repeats but may differ in a detail not shown here. Identical values can stand only once.

Tested on: WM3248 melanoma cells, 486 antibodies
Assay: Reverse phase protein arrays (RPPA)
Type: cell-based, Human
Excerpt: Pellets were snap frozen in liquid nitrogen and shipped to MD Anderson Cancer Center core RPPA facility for RPPA analysis (Table S5). Three biological replicates for each sample were generated.
Nomenclatures on the RPPA heatmaps: name_of_antibody.species_of_antibody.status_of_antibody. V - antibody validated; C - validation of antibody in progress; Q - antibody nonspecific; E – under evaluation; antibodies raised in M - mouse, G - goat, R - rabbit, or T - rat.

Compound: CN(C)c1cccc(Nc2cc(-c3ccccc3)nc(C3CCNCC3)n2)c1 [ARN22089, N1,N1-dimethyl-N3-(6-phenyl-2-(piperidin-4-yl)pyrimidin-4-yl)benzene-1,3-diamine]
- CD31.M.V normalized signal (Norm_10 Average): 0.960
- CD38.R.C normalized signal (Norm_10 Average): 0.936
- CD45.M.V normalized signal (Norm_10 Average): 0.964
- CD68.M.C normalized signal (Norm_10 Average): 1.001
- CD134.R.V normalized signal (Norm_10 Average): 0.970
- CD171.M.V normalized signal (Norm_10 Average): 0.831
- CDK1_pT14.R.C normalized signal (Norm_10 Average): 0.888
- CDK9.R.V normalized signal (Norm_10 Average): 0.988
- CDKN2A.R.C normalized signal (Norm_10 Average): 0.963
- CDT1.R.V normalized signal (Norm_10 Average): 0.925
- CENP.A.R.V normalized signal (Norm_10 Average): 0.967
- CHD1L.R.V normalized signal (Norm_10 Average): 1.025
- COG3.R.V normalized signal (Norm_10 Average): 1.013
- CRABP1.R.C normalized signal (Norm_10 Average): 0.993
- CRABP2.R.V normalized signal (Norm_10 Average): 0.915
- CSK.R.C normalized signal (Norm_10 Average): 0.971
- Calnexin.R.V normalized signal (Norm_10 Average): 1.021
- Caspase.3.cleaved.R.C normalized signal (Norm_10 Average): 0.926
- Caspase.7.cleaved..R.C normalized signal (Norm_10 Average): 1.030
- Caspase.8.M.Q normalized signal (Norm_10 Average): 0.998
- Caspase.8.cleaved.R.C normalized signal (Norm_10 Average): 0.924
- Cdc6.R.V normalized signal (Norm_10 Average): 0.962
- Cdc42.R.C normalized signal (Norm_10 Average): 0.966
- Chk1.M.C normalized signal (Norm_10 Average): 0.942
- Chk1_pS296.R.V normalized signal (Norm_10 Average): 0.948
- Chk1_pS345.R.C normalized signal (Norm_10 Average): 1.019
- Chk2.M.V normalized signal (Norm_10 Average): 0.971
- Chk2_pT68.R.C normalized signal (Norm_10 Average): 0.963
- Claudin.7.R.V normalized signal (Norm_10 Average): 1.252
- Collagen.VI.R.V normalized signal (Norm_10 Average): 1.085
- Complex.II.Subunit.M.V normalized signal (Norm_10 Average): 1.079
- Connexin.43.R.C normalized signal (Norm_10 Average): 1.004
- Cox2.R.C normalized signal (Norm_10 Average): 1.057
- Creb.R.C normalized signal (Norm_10 Average): 0.975
- CtIP.R.V normalized signal (Norm_10 Average): 0.953
- Cyclin.B1.R.V normalized signal (Norm_10 Average): 0.844
- Cyclin.D1.R.C normalized signal (Norm_10 Average): 1.008
- Cyclin.D3.M.V normalized signal (Norm_10 Average): 0.934
- Cyclophilin.F.M.V normalized signal (Norm_10 Average): 0.980
- DAPK1_pS308.M.C normalized signal (Norm_10 Average): 1.809
- DAPK2.R.C normalized signal (Norm_10 Average): 0.982
- DDB.1.R.V normalized signal (Norm_10 Average): 0.823
- DDR1.R.V normalized signal (Norm_10 Average): 1.020
- DDR1_pY513.R.C normalized signal (Norm_10 Average): 1.009
- DJ1.R.V normalized signal (Norm_10 Average): 0.997
- DM.Histone.H3.R.V normalized signal (Norm_10 Average): 0.900
- DM.K9.Histone.H3.M.V normalized signal (Norm_10 Average): 0.982
- DNA.Ligase.IV.R.C normalized signal (Norm_10 Average): 0.937
- DNA_POLG.R.V normalized signal (Norm_10 Average): 1.080
- c.Jun_pS73.R.V normalized signal (Norm_10 Average): 0.793
- c.Kit.R.V normalized signal (Norm_10 Average): 1.213
- c.Met_pY1234_Y1235.R.V normalized signal (Norm_10 Average): 0.933
- c.Myc.R.C normalized signal (Norm_10 Average): 1.350
- cdc2_pY15.R.C normalized signal (Norm_10 Average): 0.855
- cdc25C.R.V normalized signal (Norm_10 Average): 0.849
- C.Raf.R.C normalized signal (Norm_10 replicates): 1.081 and 0.699 and 0.805
- C.Raf_pS338.R.V normalized signal (Norm_10 replicates): 0.823 and 0.996
- CA9.R.C normalized signal (Norm_10 replicates): 0.873 and 0.916
- CD2.M.C normalized signal (Norm_10 replicates): 0.952 and 0.983 and 0.955
- CD4.R.V normalized signal (Norm_10 replicates): 0.995 and 0.882 and 0.915
- CD5.M.C normalized signal (Norm_10 replicates): 0.953 and 1.022
- CD20.R.C normalized signal (Norm_10 replicates): 0.859 and 1.349 and 1.680
- CD26.R.V normalized signal (Norm_10 replicates): 0.886 and 0.919 and 1.217
- CD29.M.V normalized signal (Norm_10 replicates): 0.978 and 0.970
- CD31.M.V normalized signal (Norm_10 replicates): 0.934 and 1.028 and 0.917
- CD38.R.C normalized signal (Norm_10 replicates): 1.013 and 0.750 and 1.046
- CD44.R.C normalized signal (Norm_10 replicates): 0.886 and 1.140
- CD45.M.V normalized signal (Norm_10 replicates): 0.989 and 0.991
- CD49b.M.V normalized signal (Norm_10 replicates): 1.113 and 1.053
- CD68.M.C normalized signal (Norm_10 replicates): 0.973 and 0.957
- CD74.M.V normalized signal (Norm_10 replicates): 0.883 and 1.031 and 0.993
- CD134.R.V normalized signal (Norm_10 replicates): 0.926 and 1.018 and 0.966
- CD171.M.V normalized signal (Norm_10 replicates): 0.567 and 1.011 and 0.915
- CDK1_pT14.R.C normalized signal (Norm_10 replicates): 0.950 and 0.703 and 1.011
- CDK9.R.V normalized signal (Norm_10 replicates): 0.925 and 1.065 and 0.973
- CDKN2A.R.C normalized signal (Norm_10 replicates): 0.890 and 1.007 and 0.992
- CDT1.R.V normalized signal (Norm_10 replicates): 0.844 and 1.019
- CENP.A.R.V normalized signal (Norm_10 replicates): 0.909 and 0.955
- CHD1L.R.V normalized signal (Norm_10 replicates): 0.986 and 0.996
- CIITA.R.C normalized signal (Norm_10 replicates): 0.878 and 1.138 and 1.266
- COG3.R.V normalized signal (Norm_10 replicates): 1.048 and 1.011 and 0.981
- CRABP1.R.C normalized signal (Norm_10 replicates): 0.873 and 1.131 and 0.976
- CRABP2.R.V normalized signal (Norm_10 replicates): 0.772 and 1.150 and 0.822
- CREB_pS133.R.C normalized signal (Norm_10 replicates): 1.250 and 0.794 and 1.214
- CSK.R.C normalized signal (Norm_10 replicates): 0.836
- Calnexin.R.V normalized signal (Norm_10 replicates): 0.966 and 1.158 and 0.937
- Caspase.3.cleaved.R.C normalized signal (Norm_10 replicates): 1.008 and 0.891 and 0.879
- Caspase.7.cleaved..R.C normalized signal (Norm_10 replicates): 0.971 and 1.258 and 0.862
- Caspase.8.M.Q normalized signal (Norm_10 replicates): 0.852 and 1.055
- Caspase.8.cleaved.R.C normalized signal (Norm_10 replicates): 0.985 and 0.881 and 0.907
- Caveolin.1.R.V normalized signal (Norm_10 replicates): 0.713 and 1.122 and 1.012
- Cdc6.R.V normalized signal (Norm_10 replicates): 0.858 and 0.962
- Cdc42.R.C normalized signal (Norm_10 replicates): 0.895 and 1.029 and 0.973
- Chk1.M.C normalized signal (Norm_10 replicates): 0.842 and 0.983 and 1.001
- Chk1_pS296.R.V normalized signal (Norm_10 replicates): 1.115 and 0.789 and 0.942
- Chk1_pS345.R.C normalized signal (Norm_10 replicates): 1.171 and 0.894 and 0.992
- Chk2.M.V normalized signal (Norm_10 replicates): 0.819 and 1.005
- Chk2_pT68.R.C normalized signal (Norm_10 replicates): 1.200 and 0.766 and 0.922
- Claudin.7.R.V normalized signal (Norm_10 replicates): 0.930 and 1.663 and 1.163
- Collagen.VI.R.V normalized signal (Norm_10 replicates): 1.420 and 0.935 and 0.899
- Complex.II.Subunit.M.V normalized signal (Norm_10 replicates): 0.889 and 1.275
- Connexin.43.R.C normalized signal (Norm_10 replicates): 1.260 and 0.815
- Coup.TFII.R.C normalized signal (Norm_10 replicates): 0.934 and 0.868
- Cox2.R.C normalized signal (Norm_10 replicates): 1.023 and 1.193 and 0.953
- Cox.IV.R.V normalized signal (Norm_10 replicates): 0.958 and 0.990 and 0.892
- Creb.R.C normalized signal (Norm_10 replicates): 1.051 and 0.927
- CtIP.R.V normalized signal (Norm_10 replicates): 1.000 and 0.898 and 0.962
- Cyclin.B1.R.V normalized signal (Norm_10 replicates): 0.661 and 0.815 and 1.055
- Cyclin.D1.R.C normalized signal (Norm_10 replicates): 0.958 and 1.081 and 0.985
- Cyclin.D3.M.V normalized signal (Norm_10 replicates): 0.818 and 0.939
- Cyclin.E1.R.V normalized signal (Norm_10 replicates): 0.893
- Cyclophilin.F.M.V normalized signal (Norm_10 replicates): 0.808 and 1.114 and 1.018
- D.a.Tubulin.R.V normalized signal (Norm_10 replicates): 0.881 and 0.967 and 0.966
- DAPK1_pS308.M.C normalized signal (Norm_10 replicates): 1.302 and 1.636 and 2.488
- DAPK2.R.C normalized signal (Norm_10 replicates): 0.965 and 1.028 and 0.953
- DDB.1.R.V normalized signal (Norm_10 replicates): 0.974 and 0.680 and 0.815
- DDR1.R.V normalized signal (Norm_10 replicates): 1.019 and 1.079 and 0.961
- DDR1_pY513.R.C normalized signal (Norm_10 replicates): 0.985 and 1.129 and 0.914
- DJ1.R.V normalized signal (Norm_10 replicates): 0.990 and 1.026 and 0.974
- DM.Histone.H3.R.V normalized signal (Norm_10 replicates): 0.928 and 0.824
- DM.K9.Histone.H3.M.V normalized signal (Norm_10 replicates): 0.889 and 1.013
- DNA.Ligase.IV.R.C normalized signal (Norm_10 replicates): 0.935 and 0.869 and 1.008
- DNA_POLG.R.V normalized signal (Norm_10 replicates): 1.018 and 1.199 and 1.023
- c.Jun_pS73.R.V normalized signal (Norm_10 replicates): 0.788 and 0.785 and 0.805
- c.Kit.R.V normalized signal (Norm_10 replicates): 1.136 and 1.324
- c.Met_pY1234_Y1235.R.V normalized signal (Norm_10 replicates): 0.975 and 0.946 and 0.879
- c.Myc.R.C normalized signal (Norm_10 replicates): 2.093 and 1.046
- cGAS.R.V normalized signal (Norm_10 replicates): 0.953 and 1.217 and 0.956
- cdc2_pY15.R.C normalized signal (Norm_10 replicates): 1.104 and 0.582 and 0.878
- cdc25C.R.V normalized signal (Norm_10 replicates): 0.721 and 0.808 and 1.017
- MYH11.R.C Average (Norm_20, normalized to Norm_0): 1.248
- Myosin.IIa.R.C Average (Norm_20, normalized to Norm_0): 1.147
- Myosin.IIa_pS1943.R.V Average (Norm_20, normalized to Norm_0): 1.174
- Myt1.R.C Average (Norm_20, normalized to Norm_0): 0.994
- N.Cadherin.R.V Average (Norm_20, normalized to Norm_0): 0.988
- N.Ras.M.V Average (Norm_20, normalized to Norm_0): 0.878
- NAPSIN.A.R.C Average (Norm_20, normalized to Norm_0): 1.011
- NDRG1_pT346.R.V Average (Norm_20, normalized to Norm_0): 1.336
- NDUFB4.R.V Average (Norm_20, normalized to Norm_0): 1.022
- NRF2.R.C Average (Norm_20, normalized to Norm_0): 0.907
- Notch1.R.V Average (Norm_20, normalized to Norm_0): 0.937
- Notch1.cleaved.R.V Average (Norm_20, normalized to Norm_0): 0.937
- Notch3.R.C Average (Norm_20, normalized to Norm_0): 0.994
- Oct.4.R.C Average (Norm_20, normalized to Norm_0): 1.121
- P.Cadherin.R.C Average (Norm_20, normalized to Norm_0): 1.346
- PAI.1.M.V Average (Norm_20, normalized to Norm_0): 0.985
- PAICS.R.C Average (Norm_20, normalized to Norm_0): 0.928
- PAK1.R.V Average (Norm_20, normalized to Norm_0): 0.872
- PAK4.R.V Average (Norm_20, normalized to Norm_0): 0.993
- PAK_pS474_S602_S560.R.V Average (Norm_20, normalized to Norm_0): 1.208
- PAR.R.C Average (Norm_20, normalized to Norm_0): 2.108
- PARG.R.C Average (Norm_20, normalized to Norm_0): 1.394
- PARP.R.V Average (Norm_20, normalized to Norm_0): 1.133
- PAX6.R.V Average (Norm_20, normalized to Norm_0): 0.967
- PAX8.R.C Average (Norm_20, normalized to Norm_0): 0.941
- PCNA.M.C Average (Norm_20, normalized to Norm_0): 0.869
- PD.1.R.V Average (Norm_20, normalized to Norm_0): 0.984
- PD.L1.R.C Average (Norm_20, normalized to Norm_0): 0.970
- PDH.M.V Average (Norm_20, normalized to Norm_0): 0.925
- PDHA1.R.V Average (Norm_20, normalized to Norm_0): 0.956
- PDHK1.R.C Average (Norm_20, normalized to Norm_0): 0.952
- PDK1.R.V Average (Norm_20, normalized to Norm_0): 1.116
- PDK1_pS241.R.V Average (Norm_20, normalized to Norm_0): 0.965
